System: SRS-A release
Assay: Inhibition of SRS-A release from sensitized guinea pig lung fragments challenged with ovalbumin (bioassay on guinea pig ileum)
Format: cell-based
Details: Cavia porcellus, read-out: Inhibition of SRS-A Release, Percent Inhibition; for inhibition at 1 µM: Drug Concentration 1 × 10^-6 M; for inhibition at 30 µM: Drug Concentration 3 × 10^-5 M; for inhibition at 3 µM: Drug Concentration 3 × 10^-6 M; for inhibition at 10 µM: Drug Concentration 1 × 10^-5 M
Experimental: Male, Hartley guinea pigs, usually 1-2 weeks old were sensitized with respect to ovalbumin by intraperitoneal administration of 0.15 ml. hyperimmune serum obtained from guinea pigs actively sensitized against ovalbumin. After 2 days or more, the animals were decapitated, lungs were excised and perfused through the pulmonary artery with Krebs' bicarbonate solution of the following composition in mmoles/liter: KCl, 4.6; CaCl2.2H2 O, 1.8; KH2 PO4, 1.2; MgSO4. 7H2 O, 1.2; NaCl, 118.2; NaHCO3, 24.8; and dextrose, 10.0.Poorly perfused and bloody areas were discarded. Normal lung was cut into 1 mm. cubes with a McIlwain tissue chopper, washed with Krebs' solution and divided into 400 mg. aliquots. The fragmented tissue was then incubated at 37° C. for 15 minutes in Krebs' solution containing indomethacin to optimize SRS-A release and an appropriate concentration of experimental drug. Antigen (ovalbumin) was then added to make a final concentration of 1×10^-5 g./ml. Fifteen minutes later, the incubation medium was decanted and centrifuged at 3,000×g at 4° C. for 5 minutes. The supernatant solution was collected and assayed for SRS-A using a computerized bioassay that employs the isolated guinea pig ileum (Fleisch et al., J. Pharmacol. Exp. Ther., 209, 238-243, (1979)). Release of SRS-A in the presence of an experimental drug was compared to a control sample and the results expressed as percent inhibition of SRS-A release.

O=C1C=C(Nc2ccccc2)C(=O)c2nccnc21 [Example 3, 6-anilino-5,8-quinoxalinedione]
inhibition at 1 µM: 8%
inhibition at 30 µM: 75%
inhibition at 3 µM: 22%

CN(C1=CC(=O)c2nccnc2C1=O)c1ccccc1 [Example 4, 6-(N-methylanilino)-5,8-quinoxalinedione]
inhibition at 10 µM: 18%
inhibition at 1 µM: 22%
inhibition at 30 µM: 59%

O=C1C=C(Nc2ccccc2F)C(=O)c2nccnc21 [Example 5, 6-(2-fluoroanilino)-5,8-quinoxalinedione]
inhibition at 30 µM: 83%
inhibition at 3 µM: 12%

O=C1C=C(Nc2cccc(Cl)c2)C(=O)c2nccnc21 [Example 6, 6-(3-chloroanilino)-5,8-quinoxalinedione]
inhibition at 30 µM: 71%
inhibition at 3 µM: 28%

O=C1C=C(Nc2cccc(F)c2)C(=O)c2nccnc21 [Example 7, 6-(3-fluoroanilino)-5,8-quinoxalinedione]
inhibition at 10 µM: 67%
inhibition at 1 µM: 22%
inhibition at 30 µM: 81%
inhibition at 3 µM: 48%
inhibition at 0.3 µM (Drug Concentration 3 × 10^-7 M): 6%

Cc1nc2c(nc1C)C(=O)C(Nc1ccccc1)=CC2=O [Example 8, 6-anilino-2,3-dimethyl-5,8-quinoxalinedione]
inhibition at 1 µM: 31%
inhibition at 3 µM: 40%

Reference: patent US4486432A, “Quinoxalinedione leukotriene release inhibitors” (Eli Lilly and Company, priority 1982, dated 1984)
